Laboratory results from ChEMBL document CHEMBL3217629, “Discovery of novel morpholinoquinoxalines as PI3K inhibitors by pharmacophore-based screening” (Medchemcomm, 2012).

What was measured:
[1] = system: HCT-116; assay: cells; conditions: Homo sapiens, HCT-116, 72 h
[2] = target: Phosphatidylinositol 4,5-bisphosphate 3-kinase catalytic subunit alpha isoform (Homo sapiens, UniProt P42336); assay: Inhibition of recombinant human PI3Kalpha using diC8-PI(4,5)P2 as substrate after 3 hrs by fluorescence polarization method
Sequence of Phosphatidylinositol 4,5-bisphosphate 3-kinase catalytic subunit alpha isoform (P42336 whole entry, canonical isoform): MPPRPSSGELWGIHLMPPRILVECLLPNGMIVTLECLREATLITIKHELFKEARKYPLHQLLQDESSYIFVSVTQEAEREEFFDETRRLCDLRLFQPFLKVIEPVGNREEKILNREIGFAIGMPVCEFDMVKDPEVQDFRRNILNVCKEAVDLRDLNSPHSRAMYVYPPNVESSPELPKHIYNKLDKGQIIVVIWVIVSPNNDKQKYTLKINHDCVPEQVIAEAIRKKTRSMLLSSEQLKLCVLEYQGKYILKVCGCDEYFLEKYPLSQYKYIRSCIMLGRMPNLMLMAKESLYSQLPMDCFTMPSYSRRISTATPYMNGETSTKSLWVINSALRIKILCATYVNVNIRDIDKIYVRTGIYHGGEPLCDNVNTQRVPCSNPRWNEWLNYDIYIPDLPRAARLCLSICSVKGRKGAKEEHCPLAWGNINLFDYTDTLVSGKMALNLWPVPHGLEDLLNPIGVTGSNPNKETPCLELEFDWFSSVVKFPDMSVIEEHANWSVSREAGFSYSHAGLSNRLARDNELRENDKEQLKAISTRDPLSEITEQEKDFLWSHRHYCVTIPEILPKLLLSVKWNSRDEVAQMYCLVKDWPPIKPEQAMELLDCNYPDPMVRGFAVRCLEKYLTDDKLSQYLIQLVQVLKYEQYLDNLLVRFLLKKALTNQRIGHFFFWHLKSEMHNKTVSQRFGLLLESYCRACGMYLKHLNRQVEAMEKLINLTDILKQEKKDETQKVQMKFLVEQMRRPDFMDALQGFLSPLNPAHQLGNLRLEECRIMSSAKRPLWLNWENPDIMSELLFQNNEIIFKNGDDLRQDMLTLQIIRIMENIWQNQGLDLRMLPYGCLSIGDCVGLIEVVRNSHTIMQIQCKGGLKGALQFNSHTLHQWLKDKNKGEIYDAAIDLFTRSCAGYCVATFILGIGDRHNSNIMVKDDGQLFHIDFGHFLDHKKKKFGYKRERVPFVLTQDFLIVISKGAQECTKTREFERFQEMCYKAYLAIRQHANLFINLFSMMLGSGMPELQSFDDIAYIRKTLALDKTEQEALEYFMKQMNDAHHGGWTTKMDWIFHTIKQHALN

[3] = system: A549; assay: Cytotoxicity against human A549 cells after 72 hrs by MTT assay; assay type: functional, cell-based; conditions: A549, 72 h
[4] = system: PC-3; assay: cells; conditions: Homo sapiens, PC-3, 72 h
Description: Cytotoxicity against human PC3 cells after 72 hrs by MTT assay

[5] = system: HL-60; assay: Cytotoxicity against human HL60 cells after 72 hrs by MTT assay; assay type: functional, cell-based; conditions: HL-60, 72 h

IC50 [1]	IC50 [2]	IC50 [4]	Structure (SMILES)	IC50 [3]	IC50 [5]
45.6 µM	> 50 µM	> 50 µM	c1ccc(Sc2nc3ccccc3nc2N2CCOCC2)cc1	7.25 µM	5.18 µM
> 50 µM	1.4 µM	0.88 µM	COc1ccc(S(=O)(=O)c2nc3ccccc3nc2N2CCOCC2)cc1	19.4 µM	4.8 µM
6.48 µM	21.6 µM	26.9 µM	O=S(=O)(c1ccccc1)c1nc2ccccc2nc1N1CCCCC1	> 50 µM	27.1 µM
3.61 µM	2.49 µM	3.4 µM	O=S(=O)(c1ccc(F)cc1)c1nc2ccccc2nc1N1CCOCC1	5.64 µM	1.74 µM
35 µM	2.89 µM	25.4 µM	O=S(=O)(c1ccc(Br)cc1)c1nc2ccccc2nc1N1CCOCC1	6.65 µM	3.41 µM
10.5 µM	1.58 µM	9.34 µM	Cc1ccc(S(=O)(=O)c2nc3ccccc3nc2N2CCOCC2)cc1	3.3 µM	0.95 µM
